Measurements as given in patent publication US12233060B2, “Inhibitors of Ataxia-Telangiectasia Mutated and Rad3-related protein kinase (ATR) for use in methods of treating cancer” (THE INSTITUTE OF CANCER RESEARCH: ROYAL CANCER HOSPITAL, priority 2016, dated 2025).

Key:
[1] = test system: HCT116 ARID1A+/+ and ARID1A−/− cells; assay: Cell cycle analysis of synchronized cells (G2/M fraction, FACS); type: cell-based, human; details: double thymidine block, release into VX-970 (500 nM)
Experimental: FIG. 5. ATRi effect on cell cycle progression, chromosomal instability, DNA damage and apoptosis. A. Barchart illustrating G2/M fraction in HCT116 ARID1A^+/+ and ARID1A^−/− cells synchronized in G1/early S phase by double thymidine block and released into fresh media containing DMSO or VX-970 (500 nM). The percentage of cells in G2/M was measured by FACS following PI staining. […] Cells were stained with DAPI. A minimum of 50 anaphases were scored in 3 biological replicate experiments. *p=0.023, Student's t-test. C. Bar chart illustrating frequency of anaphase bridges in TOV21G cells exposed to VX-970 (0.5 uM) or DMSO for 8 hours prior to fixation. Experiment performed as for (B). p=0.006 Student's t-test. D. Mitotic spread images from HCT116 ARID1A^+/+ and ARID1A^−/− cells following exposure to either DMSO or VX-970 (1 uM). Scale bar represents 20 um. E. Bar chart illustrating extent of chromosomal abnormalities in HCT116 ARID1A^+/+ and ARID1A^−/− cells exposed to VX-970 (1 uM). *p<0.05, Student's t-test. […]
Cells were plated at a density of 2×10^5 cells per well of a six-well plate and incubated for 24 hours after which ATRi or 0.1% DMSO was added for the indicated period of time. […] Samples were analyzed on a BD LSR II flow cytometer using BD FACSDiva software (BD Biosciences). […]

[2] = test system: HCT116 ARID1A+/+ xenografts; assay: In vivo efficacy, HCT116 ARID1A+/+ subcutaneous xenografts; set-up: species or system mice
Experimental: FIG. 3. In vivo ARID1A/ATR synthetic lethality. A. Schematic of VX-970 therapy experiment in mice bearing established HCT116 ARID1A^+/+ and ARID1A^−/− xenografts. Cells were inoculated subcutaneously into nude mice and tumors allowed to establish for 10 days. Mice were then randomized to treatment regimens of either VX-970 (60 mg/kg, 4× weekly by oral gavage) or vehicle. Mice were then treated for a subsequent 40 days. Tumor volume was monitored twice weekly. B. Relative tumor volume plot from (A) showing efficacy of VX-970 and selectivity for ARID1A^−/− xenografts* p=0.024, ANOVA. C. Schematic of tumor incidence experiment in mice with non-established HCT116 ARID1A^+/+ and ARID1A^−/− xenografts. Mice were inoculated with cells as before, randomized and then treated with VX-970. VX-970 or vehicle treatment was initiated on the day of cell implantation. Tumor volume was monitored twice weekly and overall tumour incidence was assessed 40 days later. D. Bar chart of incidence 40 days after implantation of HCT116 ARID1A^+/+ and ARID1A^−/− cells. Each group contained 15 animals and fractions above bars indicate the number of animals in which a measurable xenograft formed. *p=0.027 Fisher's exact test. E and F. Tumor growth in experiment described in (C). *p=0.015 ANOVA. G. VX-970 dose response curves from TOV21G (ARID1A mutant) and RMG1 (ARID1A wildtype) cells. Cells were exposed to VX-970 for 5 days. […] PARP-1, cleaved PARP-1 (85 kDa fragment) and tubulin were detected by western blot. […] Caspase3/7 activity was assessed using Caspase-Glo and total cellular viability was estimated using CellTitre-Glo. Luminescence ratios for Caspase-Glo (i.e. apoptotic cells) and CellTitre-Glo (ie viable cells) was determined for each dose and normalized to DMSO treated samples. *Student's t-test, p<0.05. […]
In vivo efficacy studies were performed using HCT116 […], HCT116 ARID1A^−/− and TOV21G cells injected subcutaneously in the flank of female CD-1 Nude mice. […] Tumours were measured manually by calliper trice weekly and animals were sacrificed when tumours reached >15 mm in any direction.

[3] = test system: HCT116 ARID1A+/+ and ARID1A−/− cells; assay: γH2AX western blot; type: cell-based, human; details: VX-970 0.5 uM; ARID1A−/− vs ARID1A+/+
Experimental: FIG. 5. ATRi effect on cell cycle progression, chromosomal instability, DNA damage and apoptosis. A. Barchart illustrating G2/M fraction in HCT116 ARID1A^+/+ and ARID1A^−/− cells synchronized in G1/early S phase by double thymidine block and released into fresh media containing DMSO or VX-970 (500 nM). The percentage of cells in G2/M was measured by FACS following PI staining. […] Cells were stained with DAPI. A minimum of 50 anaphases were scored in 3 biological replicate experiments. *p=0.023, Student's t-test. C. Bar chart illustrating frequency of anaphase bridges in TOV21G cells exposed to VX-970 (0.5 uM) or DMSO for 8 hours prior to fixation. Experiment performed as for (B). p=0.006 Student's t-test. D. Mitotic spread images from HCT116 ARID1A^+/+ and ARID1A^−/− cells following exposure to either DMSO or VX-970 (1 uM). Scale bar represents 20 um. E. Bar chart illustrating extent of chromosomal abnormalities in HCT116 ARID1A^+/+ and ARID1A^−/− cells exposed to VX-970 (1 uM). *p<0.05, Student's t-test. F. Western blot illustrating γH2AX in HCT116 ARID1A^+/+ and ARID1A^−/− cells exposed to VX-970 (0.5 uM) for the indicated time prior to cell lyses. G. Bar chart illustrating apoptotic fraction in cells exposed to increasing concentrations of VX-970 for 24 hours. Experiment as per FIG. 3I. H. Western blot illustrating PARP cleavage in HCT116 ARID1A^+/+ and ARID1A^−/− cells exposed to VX-970. […]

In the case of `CNCc1ccc(-c2cc(-c3nc(-c4ccc(S(=O)(=O)C(C)C)cc4)cnc3N)on2)cc1` [VX-970, 5-[4-(Isopropylsulfonyl)phenyl]-3-(3-{4-[(methylamino)methyl]phenyl}-1,2-oxazol-5-yl)-2-pyrazinamine], the “G2/M delay in ARID1A−/− cells” value [1] is reported as “abrogated the G2/M delay”, the “growth of established ARID1A+/+ xenografts” value ([2]; 60 mg/kg, 4x weekly oral gavage, 40 days) is reported as “no effect” and the “growth of ARID1A+/+ xenografts under continued treatment” value ([2]; non-established xenograft experiment, p=0.63 ANOVA) is reported as “did not impair”. The “incidence of ARID1A+/+ xenografts” value ([2]; treatment from day of cell implantation, incidence 40 days later, 15 animals per group) was 80% and the γH2AX induction [3] was “more pronounced”.
